Data: US20020019389A1, “Urea derivative useful as an anti-cancer agent and process for preparing same” (priority 2000, published 2002)
Converted amounts (≈) assume the structure as drawn. Where two headings read alike, the source gives them in different places.

Legend:
[1] = tested on: SPF ICR mouse; conditions: clinically used comparison drugs, not among the test compounds of b552; species and route not given; cited from earlier work
[2] = tested on: SUN638 (gastric cancer) cell line; test: Anti-cancer activity in vitro, SUN638 cell line; type: cell-based
Method: (§1) The anti-cancer activity and toxicity of the compound according to the present invention were evaluated in vitro using A549 (lung cancer), SUN638 (gastric cancer), HCT116 (rectal cancer), and A431 (ovarian cancer) cell lines. The above four (4) cell lines were purchased from Cancer Research Institute, Seoul National University College of Medicine. […] The experiment was basically carried out according to the process described in Monks, A., et al, Journal of National Cancer Institute. 83: 757-766 (1991) and the results are represented in the following Tables 2 and 3.

[3] = tested on: A431 (ovarian cancer) cell line; test: Anti-cancer activity in vitro, A431 cell line; type: cell-based
Method: as §1

[4] = tested on: HCT116 (rectal cancer) cell line; test: Anti-cancer activity in vitro, HCT116 cell line; type: cell-based
Method: as §1

[5] = tested on: A549 (lung cancer) cell line; test: Anti-cancer activity in vitro, A549 cell line; type: cell-based
Method: as §1

[6] = tested on: SPF ICR mouse; test: Acute toxicity test, single oral administration; type: in vivo; conditions: single administration per oral, 7-day observation
Method: (§2) (1) Test Animal: SPF ICR mouse
(§3) (2) Age of the Test Animal: 4 weeks from acquisition 5 weeks from the start of administration
(§4) (3) Gender and Number of Test Animal: respective 18 he and she-mice (6 groups in each of he and she-mice, 3 mice per group)
(§5) (4) Breeding Environment: Temperature 22±3° C., Relative humidity […], Illumination 150-300 Lux
(§6) (5) Method of Administration: Single administration per oral
(§7) (6) Items to be Observed: General symptoms, appearance, weight and autopsy of dead mice
(§8) (8) Medium: 0.5% Tween 80

[7] = tested on: A431 cell line; test: Anti-cancer activity in vitro, A431 cell line; type: cell-based; conditions: Homo sapiens, A-431, read-out: LC50
Method: as §1

[8] = Acute toxicity test, single oral administration; type: in vivo; conditions: mouse, in vivo, single administration per oral, 7-day observation
Method: as §2, §3, §4, §5, §6, §7, §8

[9] = SUN638 Cell Line, read-out: GI50
[10] = Homo sapiens, A-431, A431 Cell Line, read-out: GI50
[11] = Homo sapiens, HCT-116, read-out: LC50
[12] = Homo sapiens, HCT-116, HCT116 Cell Line, read-out: GI50
[13] = both sexes, male and female ICR mice
[14] = Homo sapiens, A549, read-out: LC50
[15] = Homo sapiens, A549 Cell Line, read-out: GI50

SMILES | GI50 ([2]; SUN638 Cell Line) [µg/mL] | TGI50 ([2]; SUN638 Cell Line) [µg/mL] | TGI50 ([3]; A431 Cell Line) [µg/mL] | GI50 ([4]; HCT116 Cell Line) [µg/mL] | TGI50 ([4]; HCT116 Cell Line) [µg/mL] | GI50 ([5]; A549 Cell Line) [µg/mL] | TGI50 ([5]; A549 Cell Line) [µg/mL] | LC50 ([2]; read-out: LC50) [µg/mL] | LC50 [7] [µg/mL] | LC50 [4, 11] [µg/mL] | LC50 [5, 14] [µg/mL] | further results
N.N.O=C([O-])C1(C(=O)[O-])CCC1.[Pt+2] [Carboplatin] | – | – | – | – | – | – | – | – | – | – | – | LD50 [1]: 150 mg/kg
N.N.[Cl][Pt][Cl] [Cisplatin, cisplatin, reference compound] | 1.7 | 13.3 | 28.7 | 2.9 | 32.77 | 3.8 | 47.3 | – | – | – | – | GI50 ([3]; A431 Cell Line): 3.2 µg/mL
COc1cc2c(cc1OC)C(c1ccccc1)CN(C(=O)Nc1nc3ccccc3nc1OC)CC2 (stereo not drawn) [Compound 2, 3-[N-(2-methoxyquinoxalin-3-yl)aminocarbonyl]-7,8-dimethoxy-1-phenyl-2,3,4,5-tetrahydro-3H-benzazepine] | – | – | – | – | – | – | – | – | – | – | – | LD50 ([6]; male and female ICR mice): 2000 (male and female) mg/kg
COc1cc2c(cc1OC)[C@H](c1ccccc1)CN(C(=O)Nc1nc3ccccc3nc1OC)CC2 [Compound 3, 3-[N-(2-methoxyquinoxalin-3-yl)aminocarbonyl]-(S)-7,8-dimethoxy-1-phenyl-2,3,4,5-tetrahydro-3H-benzazepine] | 1.47 (≈ 3.03 µM) | 9.33 | 26.30 | 1.31 (≈ 2.7 µM) | 5.62 | 1.31 (≈ 2.7 µM) | 5.62 | – | – | – | – | LC50 ([2]; SUN638 Cell Line): >100 µg/mL; GI50 ([3]; A431 Cell Line): 2.04 µg/mL (≈ 4.21 µM); LC50 ([3]; A431 Cell Line): >100 µg/mL; LC50 ([4]; HCT116 Cell Line): >100 µg/mL; LC50 ([5]; A549 Cell Line): >100 µg/mL
C=CCNc1nc(NCC=C)nc(N2CCN(C(=O)NC(c3ccccc3)c3ccccc3)CC2)n1 [Compound 38, 1-[(diphenylmethyl)aminocarbonyl]-4-(4,6-bis-allylamino-[1,3,5]triazin-2-yl)piperazine] | – | – | 7.24 | – | – | – | – | > 100 | > 100 | > 100 | > 100 | GI50 [2, 9]: 2.75 µg/mL (≈ 5.67 µM); GI50 [3, 10]: 1.41 µg/mL (≈ 2.91 µM); GI50 [4, 12]: 1.28 µg/mL (≈ 2.64 µM); LD50 at 7 day [8, 13]: 2000 mg/kg; GI50 [5, 15]: 1.28 µg/mL (≈ 2.64 µM)
COc1nc2ccccc2nc1NC(=O)N1CCN(C(c2ccccc2)c2ccccc2)CC1 [Compound 48, 1-[N-(2-methoxyquinoxalin-3-yl)aminocarbonyl]-4-(diphenylmethyl)piperazine] | – | – | 100 | – | – | – | – | > 100 | > 100 | > 100 | > 100 | GI50 [2, 9]: 1.62 µg/mL (≈ 3.57 µM); GI50 [3, 10]: 1.65 µg/mL (≈ 3.64 µM); GI50 [4, 12]: 0.67 µg/mL (≈ 1.48 µM); GI50 [5, 15]: 1.07 µg/mL (≈ 2.36 µM)
Cc1cc(C)cc(N2CCN(C(=O)n3ccnc3)CC2)c1 [Compound 55, 1-[(1H-imidazol-1-yl)carbonyl]-4-(3,5-dimethylphenyl)piperazine] | – | – | 67.60 | – | – | – | – | > 100 | > 100 | > 100 | > 100 | GI50 [2]: 1.09 µg/mL (≈ 3.83 µM); GI50 ([3]; Homo sapiens, A-431): 1.38 µg/mL (≈ 4.85 µM); GI50 ([4]; Homo sapiens, HCT-116): 2.08 µg/mL (≈ 7.31 µM); GI50 ([5]; Homo sapiens, A549): 1.77 µg/mL (≈ 6.22 µM)
Cc1cc(C)cc(N2CCN(C(=S)n3ccnc3)CC2)c1 [Compound 56, 1-[(1H-imidazol-1-yl)thiocarbonyl]-4-(3,5-dimethylphenyl) piperazine] | – | – | 28.84 | – | – | – | – | > 100 | > 100 | > 100 | > 100 | GI50 [2, 9]: 1.34 µg/mL (≈ 4.46 µM); GI50 [3, 10]: 1.31 µg/mL (≈ 4.36 µM); GI50 [4, 12]: 1.47 µg/mL (≈ 4.89 µM); GI50 [5, 15]: 2.04 µg/mL (≈ 6.79 µM)
Cc1cc(C)cc(N2CCN(C(=O)n3ccnc3)CC2)c1.Cl [Compound 57, 1-[(1H-imidazol-1-yl)carbonyl]-4-(3,5-dimethylphenyl)piperazine hydrochloride] | – | – | 8.31 | – | – | – | – | > 100 | > 100 | > 100 | > 100 | GI50 [2]: 1.69 µg/mL; GI50 ([3]; Homo sapiens, A-431): 1.51 µg/mL; GI50 ([4]; Homo sapiens, HCT-116): 1.34 µg/mL; LD50 at 7 day [8, 13]: 1160 mg/kg; GI50 ([5]; Homo sapiens, A549): 1.77 µg/mL
C=CCN(CC=C)c1nc(N(CC=C)CC=C)nc(N2CCN(C(=O)n3ccnc3)CC2)n1 [Compound 61, 1-[(1H-imidazol-1-yl)carbonyl]-4-(4,6-bis-diallylamino-[1,3,5]triazin-2-yl)piperazine] | – | – | – | – | – | – | – | > 100 | – | – | > 100 | GI50 [2]: 2.95 µg/mL (≈ 6.56 µM); LD50 at 7 day ([8]; female ICR mice): 1140 mg/kg; LD50 at 7 day ([8]; male ICR mice): 2330 mg/kg; GI50 ([5]; Homo sapiens, A549): 6.02 µg/mL (≈ 13.4 µM)
O=C(N1CCN(c2nc(NCC3CC3)nc(NCC3CC3)n2)CC1)n1ccnc1 [Compound 62, 1-[(1H-imidazol-1-yl)carbonyl]-4-(4,6-bis-cyclopropylmethylamino-[1,3,5]triazin-2-yl)piperazine] | – | – | – | – | – | – | – | > 100 | – | > 100 | > 100 | GI50 [2]: 0.61 µg/mL (≈ 1.53 µM); GI50 ([4]; Homo sapiens, HCT-116): 0.38 µg/mL (≈ 0.956 µM); LD50 at 7 day ([8]; female ICR mice): 466 mg/kg; LD50 at 7 day ([8]; male ICR mice): 354 mg/kg; GI50 ([5]; Homo sapiens, A549): 0.48 µg/mL (≈ 1.21 µM)
COc1cc2c(cc1OC)C(c1ccccc1)CN(C(=O)n1ccnc1)CC2 (stereo not drawn) [Compound 66, 3-[(1H-imidazol-1-yl)carbonyl]-7,8-dimethoxy-1-phenyl-2,3,4,5-tetrahydro-3H-benzazepine] | 0.21 (≈ 0.556 µM) | 1.73 | 100 | 0.19 (≈ 0.503 µM) | 7.76 | 0.38 (≈ 1.01 µM) | 54.95 | – | – | – | – | LC50 ([2]; SUN638 Cell Line): >100 µg/mL; GI50 ([3]; A431 Cell Line): 0.28 µg/mL (≈ 0.742 µM); LC50 ([3]; A431 Cell Line): >100 µg/mL; LC50 ([4]; HCT116 Cell Line): >100 µg/mL; LD50 ([6]; female ICR mice): 2000 (female) mg/kg; LD50 ([6]; male ICR mice): 1921 (male) mg/kg; LC50 ([5]; A549 Cell Line): >100 µg/mL
COc1cc2c(cc1OC)C(c1ccccc1)CN(C(=S)n1ccnc1)CC2 (stereo not drawn) [Compound 67, 3-[(1H-imidazol-1-yl)thiocarbonyl]-7,8-dimethoxy-1-phenyl-2,3,4,5-tetrahydro-3H-benzazepine] | 1.51 (≈ 3.84 µM) | 8.12 | 30.19 | 0.23 (≈ 0.584 µM) | 13.48 | 0.66 (≈ 1.68 µM) | 17.78 | – | – | – | – | LC50 ([2]; SUN638 Cell Line): >100 µg/mL; GI50 ([3]; A431 Cell Line): 0.70 µg/mL (≈ 1.78 µM); LC50 ([3]; A431 Cell Line): >100 µg/mL; LC50 ([4]; HCT116 Cell Line): >100 µg/mL; LC50 ([5]; A549 Cell Line): >100 µg/mL
COc1cc2c(cc1OC)C(c1ccc(F)cc1)CN(C(=O)n1ccnc1)CC2 (stereo not drawn) [Compound 70, 3-[(1H-imidazol-1-yl)carbonyl]-7,8-dimethoxy-1-(4-fluoro)phenyl-2,3,4,5-tetrahydro-3H-benzazepine] | 1.78 (≈ 4.5 µM) | 7.24 | – | 1.31 (≈ 3.31 µM) | 23.98 | 1.12 (≈ 2.83 µM) | 100 | – | – | – | – | LC50 ([2]; SUN638 Cell Line): >100 µg/mL; LC50 ([4]; HCT116 Cell Line): >100 µg/mL; LD50 ([6]; male and female ICR mice): 2000 (male and female) mg/kg; LC50 ([5]; A549 Cell Line): >100 µg/mL
COc1cccc2c1C(=O)c1c(O)c3c(c(O)c1C2=O)C[C@@](O)(C(=O)CO)C[C@@H]3O[C@H]1C[C@H](N)[C@H](O)[C@H](C)O1 [Doxorubicin] | – | – | – | – | – | – | – | – | – | – | – | LD50 [1]: 21.1 mg/kg
